Patent publication US11298354B2, “Methods of use and pharmaceutical combinations of HDAC inhibitors with BET inhibitors” (DANA-FARBER CANCER INSTITUTE, INC., priority 2016, dated 2022)

Columns and labels:
[1] = test system: peripheral blood mononuclear cells (PBMCs) from healthy donors; assay: Healthy donor PBMCs cultured with HDAC inhibitors, FACS; type: cell-based, human; details: for percentage of CD4+FOXP3+ Tregs within PBMCs: FIG. 1C
Text: HDAC inhibition results in tumor growth arrest in immunocompetent animal models. The effects of class I and class II HDAC inhibition on leukocytes were investigated using peripheral blood mononuclear cells (PBMCs) obtained from healthy donors.

[2] = test system: lung adenocarcinomas of KP mice; assay: Immune profiling of KP tumor nodules after 4-6 weeks of treatment; type: in vivo, mouse
Description: For immune profiling, cohorts of mice were sacrificed after 4-6 weeks of treatment and tumor cell suspensions were subjected to FACS analysis. […] In addition, immune cells isolated from tumors of mice treated with indicated drugs were stimulated ex-vivo for 6 hours in the presence of golgi plug. […] Equivalent numbers of each of these populations were co-cultured for two days in the presence of tumor cell lysate.
(§1) After incubation, cells were treated with red blood cell lysis buffer and were filtered through a 70 μm cell strainer. After centrifugation, cell pellet was re-suspended in 1×PBS/2% FBS. Cells were counted, and ˜0.5-1×10^6 cells were stained for surface markers in PBS+2% FBS for 15 minutes at 4° C. Intracellular staining was performed for Foxp3, Ki67, CTLA-4, and Bcl-2, using the Foxp3 staining buffer according to the manufacturer's instructions while the cytofix/cytoperm kit (BD Bioscience) was used for intracellular cytokine staining. Briefly, cells were stained for surface markers including CD4, CD8, CD3, followed by intracellular staining with PE-conjμgated anti-IFN-γ, BV421-conj μgated anti-TNF-α, APC-conjugated IL-2, FITC-conjugated Perforin and CD107a (where indicated), or isotype-matched mAbs after permeabilization and fixation. In all stained samples, dead cells were excluded using Live/Dead Fixable dead cell staining kit (Invitrogen). Cells were acquired on the LSR Fortessa (BD Biosciences) and were analyzed with the flowjo software (Treestar).
(§2) For intracellular cytokine detection assays, immune cells from tumors of treated or control mice were obtained after ficoll gradient separation as previously described. 1×10^6 cells were cultured with PMA (50 ng) and Ionomycin (500 ng) for 6 hours at 37° C., and GolgiPlμg (BD Pharmingen) was added for the last 5 hours of culture. For equivalent assays utilizing human PBMCs, 0.5×10^6 cells were similarly stimulated prior to analysis.

[3] = test system: PBMCs obtained from non-small cell lung cancer (NSCLC) patients; assay: NSCLC patient PBMCs cultured with Compound A or entinostat, FACS; details: for expression of CD86 on CD14+ monocytes / expression of MHC class II molecules on CD14+ monocytes: 24-hour culture, FIG. 4A; for expression of CD69 activation marker on conventional CD8+ and CD4+ T cells: patient PBMC cultures, FIG. 3A, 3B
Description: Specifically, the phenotype of CD14+CD11b+ monocytes in the peripheral blood of healthy subjects and NSCLC patients, or that of CD14-CD68+CD11b+ macrophages within disaggregated NSCLC tumors were investigated. […] Peripheral blood mononuclear cells (PBMCs) were isolated by Ficoll gradient from fresh or frozen blood samples obtained from healthy donors and consented patients under IRB-approved institutional protocols. […] Cells were then washed and were subjected to phenotypic analysis by FACS. In some experiments, these cultures were performed with purified CD14+ monocytes or CD3+ T cells after purifications from whole PBMCs.

[4] = test system: lung adenocarcinomas of KP and TL mice; assay: 7-day treatment of KP and TL lung adenocarcinoma mice, tumor immune profiling; type: in vivo, mouse
Text: Tumor-associated immune cells are important in shaping the course of tumor progression and anti-tumor immunity. The effects of an HDAC6 selective inhibitor on phenotypic and functional changes, especially in the context of tumor antigens, were investigated. Specifically, the effects of an HDAC6 selective inhibitor on immune cells infiltrating lung adenocarcinomas that spontaneously develop in fully immunocompetent genetically engineered mice harboring activating Kras^G12D mutation and concurrent p53 loss (designated as KP), or those with T790M/L858R EGFR mutations (designated TL) were studied. […] Single cell suspensions of lung tumor nodules were generated and subjected to FACS analysis to assess the proportions, phenotype and function of CD45+ immune cell subsets in the tumors isolated from both KP and TL mice.
Mice with existing adenocarcinomas were treated once daily with Compound A for seven days prior to evaluation of dissociated tumors by comprehensive multi-parameter flow cytometry. […] Such increases in the CD8:Treg ratios are often associated with enhanced anti-tumor response. […]
as §1, §2
Tumor-associated macrophages (TAMs; CD45+CD11c+CD11b^lo) and CD45+CD3+CD25^lo/− T cells were sorted into 96-well plates containing 50 μl of 1×PBS with Recombinant Ribonuclease Inhibitor (Life Technologies) isolated from tumor tissues by FACS sorting. Briefly, tumor cell suspensions were incubated with live/dead fixable dye after FcγR blocking and subsequently stained with antibodies against CD45, CD3, CD8, CD11b, and CD11c. Smart-Seq2 libraries were prepared by the Broad Technology Labs and sequenced by the Broad Genomics Platform.

[5] = current clinical trials of hematologic cancers; cited from earlier work
[6] = test system: CD14+ monocytes from patient PBMCs / allogeneic T cells; assay: Mixed lymphocyte reaction with drug-exposed CD14+ monocytes; details: monocytes cultured 24 hours with drug, 6 days co-culture, FIG. 4D
Description: For T cell proliferation assays, T cells were isolated from PBMCs by positive selection using T cell enrichment kit (Miltenyi Biotec) following the manufacturer's instructions. Cells were typically ˜90% pure. […] Cells were washed three times with RPMI+10% FBS, were counted, and were used as responder cells.

[7] = test system: lung adenocarcinomas of KP mice; assay: Long-term efficacy study in KP mice; details: I.P. once daily, MRI, FIG. 6 and 8A
Description: Tumor growth was monitored weekly by MRI.
For lung tumor induction, mice received 1×10^6 cfu cre-encoding adenovirus intranasally at 5-6 weeks of age. Tumor formation (typically 6-8 weeks post inoculation) and volume was confirmed by MRI and was quantified using the 3D-slicer software. […] All mice were maintained under specific pathogen-free conditions.
JQ1 was formulated in 10% DMSO and 90% of 10% 2-hydroxylpropyl β-cyclodextrin (Sigma), and was administrated to mice at 25 mg/kg I.P. daily. Vehicle control was prepared by diluting DMSO into the related drug vehicle. […] Depletion of relevant cell types was confirmed by flow cytometry one day after the second dose using peripheral blood obtained from the tail vein.

[8] = test system: single cell suspensions from dissociated freshly resected NSCLC tumors; assay: Dissociated NSCLC patient tumor cell cultures, FACS; type: cell-based, human; details: 2-D tumor cell cultures, FIG. 4B
Text: DMSO was used as a control.

[9] = test system: CD3+CD4+CD25hi Treg cells from spleen of wild-type mice; assay: Mouse splenic T cells and Tregs cultured with JQ1; type: cell-based
Text: A combination treatment with an HDAC6 selective inhibitor and a complementary immunomodulatory agent can achieve greater levels of immune-based control of tumor growth in these NSCLC models. JQ1 was previously shown to have an anti-tumor effect in KP mice in part due to downregulation of MYC and induction of apoptosis in tumor cells. […] T cells were isolated from the spleen of wild-type mice and sorted into CD3+CD25− (T cells) or CD3+CD4+CD25hi (Treg) subsets and subsequently cultured in the presence or absence of JQ1 (1 μM). Cultures were supplemented with 100 IU/mL of recombinant IL-2. Cells were washed after two days of culture and their phenotype was evaluated by FACS. For the CSFE dilution shown in FIG. 7C, 2×10^5 CFSE-labelled purified T cells obtained from the spleen of naïve mice were co-cultured with 1.0×10^5 mitomycin C treated, T-depleted spleen cells which served as APCs. 0.5 μg of soluble anti-CD3 was then added to each well along with graded numbers of Tregs (indicated by Treg:T cell ratios).

[10] = PBMCs from healthy donors, FIG. 4C
[11] = KP and TL mice, 7 days, FIG. 5K-5M
[12] = KP and TL mice, once daily for seven days, FIG. 5A-5B
[13] = JQ1 1 μM, two days of culture, FIG. 7B

## O=C(CCCCCCNC(=O)c1cnc(N(c2ccccc2)c2ccccc2)nc1)NO [Compound A, 2-(diphenylamino)-N-(7-(hydroxyamino)-7-oxoheptyl)pyrimidine-5-carboxamide]
[1]; [10]
  expression of CD86 on monocytes: increased expression
  expression of MHC class II on monocytes: increased expression
[1]; healthy donor PBMC cultures, 24 hours, FIG. 3C, 3D
  expression of CD69 activation marker on conventional CD8+ and CD4+ T cells: substantially up-regulated
[1]; healthy donor PBMCs, 24 hours
  percentage of CD4+FOXP3+ Tregs within PBMCs: reduced most significantly
[1]; healthy donor PBMCs, FIG. 3E
  phospho-STAT3 expression on T cells: increase
[2]; FIG. 9G
  MHC class II molecules on TAMs: markedly promoted the up-regulation
[2]; FIG. 9H
  CD86 on TAMs: markedly promoted the up-regulation
[3]
  expression of CD86 on CD14+ monocytes: up-regulated
  expression of MHC class II molecules on CD14+ monocytes: up-regulated
  expression of CD69 activation marker on conventional CD8+ and CD4+ T cells: substantially up-regulated
[4]; [11]
  expression levels of CD86 on CD11c+CD11b lo tumor-associated macrophages: significantly elevated expression levels
  expression levels of MHC class II on CD11c+CD11b lo tumor-associated macrophages: significantly elevated expression levels
[4]; [12]
  CD4+Foxp3+ Treg cells among lymphoid cells: significant decreases
  frequency of tumor-infiltrating CD8+ T cells: modest increases
[4]; KP mice, single cell RNA-Seq, vs vehicle, FIG. 5N
  genes associated with T cell activation and effector function (Cd69, Sell, Cd44, Prf1) in tumor-infiltrating T cells: up-regulated
[4]; PD-1, CTLA-4, TIM3, seven days, FIG. 5D-5G
  inhibitory receptor molecule expression on tumor-infiltrating T cells: no substantial phenotypic changes
[4]; ex-vivo stimulation, vs vehicle, FIG. 5H
  secretion of IFN-γ and TNF-α by tumor-infiltrating CD8+ T cells: enhanced capacity to secrete
[4]; seven days treatment, vs vehicle, FIG. 5H
  CD69 activation marker on tumor-infiltrating CD8+ T cells: increased expression levels
[4]; single cell RNA-Sequencing, vs control mice, FIG. 5N
  expression of genes associated with MHC class II (Cd74, H2-Aa) in TAMs: higher expression
[5]
  safety profile: favorable safety profile
[6]
  induction of allogeneic T cell proliferative responses by exposed CD14+ monocytes: superior
[7]
  tumor growth: marginal delay
[8]
  expression of CD86 on CD14-CD68+CD11b+ macrophages: increased expression
  expression of MHC class II on CD14-CD68+CD11b+ macrophages: increased expression

## CN1CCc2c(c3ccccc3n2Cc2ccc(C(=O)NO)cc2)C1 [Tubastatin, Tubastatin A, reference compound]
[1]; healthy donor PBMCs, 24 hours
  percentage of CD4+FOXP3+ Tregs within PBMCs: did not significantly impact

## Nc1ccccc1NC(=O)c1ccc(CNC(=O)OCc2cccnc2)cc1 [Entinostat, entinostat, reference compound]
[1]; healthy donor PBMCs, 24 hours
  percentage of CD4+FOXP3+ Tregs within PBMCs: effect was still present
[3]
  expression of CD86 on CD14+ monocytes: neither addition of DMSO nor entinostat up-regulated
  expression of MHC class II molecules on CD14+ monocytes: neither addition of DMSO nor entinostat up-regulated
  expression of CD69 activation marker on conventional CD8+ and CD4+ T cells: not

## O=C(NO)c1cnc(NC2(c3cccc(F)c3)CCCCC2)nc1 [Compound C, 2-((1-(3-fluorophenyl)cyclohexyl)amino)-N-hydroxypyrimidine-5-carboxamide]
[1]; healthy donor PBMCs, 24 hours
  percentage of CD4+FOXP3+ Tregs within PBMCs: did not significantly impact

## Cc1sc2c(c1C)C(c1ccc(Cl)cc1)=NC(CC(=O)OC(C)(C)C)c1nnc(C)n1-2 (stereo not drawn) [JQ1]
[2]; 4-6 weeks, FIG. 9B
  Treg fractions/proportions in tumors: more substantial reduction
[9]; CFSE dilution, FIG. 7C
  suppressive function of Tregs vs unexposed counterparts: less suppressive
[9]; [13]
  expression levels of Foxp3 on Tregs: diminished expression levels
  expression levels of PD-1 on Tregs: diminished expression levels
[7]
  tumor growth: moderate

## O=C(CCCCCCNC(=O)c1cnc(N(c2ccccc2)c2ccccc2Cl)nc1)NO [Compound B, 2-((2-chlorophenyl)(phenyl)amino)-N-(7-(hydroxyamino)-7-oxoheptyl)pyrimidine-5-carboxamide]
[1]; healthy donor PBMCs, 24 hours
  percentage of CD4+FOXP3+ Tregs within PBMCs: reduced most significantly
[4]; KP mice, 7 days, FIG. 5I
  activation of CD8 T cells (CD69 activation marker): increased activation
  expression of MHCII on tumor associated macrophages: increased expression

## O=C(NO)c1cnc(NC2(c3ccccc3)CC2)nc1 [Compound D, N-hydroxy-2-((1-phenylcyclopropyl)amino)pyrimidine-5-carboxamide]
[1]; healthy donor PBMCs, 24 hours
  percentage of CD4+FOXP3+ Tregs within PBMCs: effect was still present
